The nature of the first data set: method code SF-AS, from DOI: 10.1021/jm00213a023, PMID: 321779.
One may read the logP as a log measure of how a compound divides between an organic and an aqueous phase. Higher therefore signals a more lipophilic compound. As to `CCCCCCCCOc1cc(N)ccc1C(=O)O`, the logP came to 3.77.

`Nc1ccc(C(=O)O)cc1Cl` showed a logP of 2.35.

Compound `Nc1ccc(C(=O)O)cc1I` returned a logP of 2.36.

In turn, `Nc1ccc(C(=O)O)cc1Br` gave a logP of 2.23.

Compound `Nc1ccc(C(=O)O)cc1O` showed a logP of 0.5.

`Nc1ccc(C(=O)O)c([N+](=O)[O-])c1`: the logP came out at 1.21.

`Nc1ccc(C(=O)O)c(I)c1` came in with a lipophilicity (logP) of 1.65.

`CCCCCOc1cc(N)ccc1C(=O)O` yielded a logP of 2.38.

In the case of `CC(C)CCOc1cc(N)ccc1C(=O)O`, the logP stood at 2.3.

In the case of `Nc1ccc(C(=O)O)c(Br)c1`, the logP is 1.49.

`CCCCOc1cc(N)ccc1C(=O)O` returned a logP of 1.24.

For the compound `Nc1ccc(C(=O)O)cc1F`, the logP is 1.41.

For `Nc1ccc(C(=O)O)c(N)c1`, the logP is -0.31.

`C=CCOc1cc(N)ccc1C(=O)O` gave a logP of 1.25.

The compound `Nc1ccc(C(=O)O)c(F)c1` showed a lipophilicity (logP) of 1.29.

With `CCCCCCCOc1cc(N)ccc1C(=O)O`, the logP was determined as 3.37.

`COc1cc(N)ccc1C(=O)O` had a logP of 0.45.

The compound `Nc1ccc(C(=O)O)c(Cl)c1` had a lipophilicity (logP) of 1.33.

Compound `Nc1ccc(C(=O)O)cc1N` came in with a logP of 0.13.

The next data set in a line: method code SF, from DOI: 10.1021/jm00213a023, PMID: 321779.
In the case of `Nc1ccc(C(=O)O)cc1N1C(=O)CSC1=S`, the lipophilicity (logP) was determined as 1.66.

The compound `CCOc1cc(N)ccc1C(=O)O` gave a logP of 0.99.

A short description of the next data set: method code SF-C, from DOI: 10.1021/jm00213a023, PMID: 321779.
Compound `Cc1cc(N)ccc1C(=O)O` had a lipophilicity (logP) of 1.14.
